These results are taken from patent publication US20250215029A1 (Recludix Pharma, Inc., priority 2022, published 2025).

The target of one experiment is T1, pY705-STAT3 in PBMC (Homo sapiens, UniProt P40763).
T1 construct: Cryopreserved Peripheral Blood Mononuclear Cells (PBMC) are from AllCells; host or cells: cryopreserved PBMC
Briefly: MSD-pSTAT-PBMC Assay (pSTAT3, IL-6 stimulated). It counts as cell-based. As to conditions: PBMC, compound 3 hrs, then 10 ng/mL IL-6 for 10 min. The gist of the method:
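Thawed human PBMC rested overnight in IMDM/10% FBS, then got compound for 3 hrs before a 10 min cytokine pulse: 1 ng/mL IL-4 for pSTAT6, 10 ng/mL IL-6 for pSTAT3. Lysates went to MSD sandwich capture on total STAT6 or STAT3 with phospho-specific detection. IC50 came from background-subtracted, DMSO-normalized signal.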

The target in another experiment is T2, pY641-STAT6 in PBMC (Homo sapiens, UniProt P42226).
T2 construct: Cryopreserved Peripheral Blood Mononuclear Cells (PBMC) are from AllCells; host or cells: cryopreserved PBMC
T2 sequence (P42226 1-847): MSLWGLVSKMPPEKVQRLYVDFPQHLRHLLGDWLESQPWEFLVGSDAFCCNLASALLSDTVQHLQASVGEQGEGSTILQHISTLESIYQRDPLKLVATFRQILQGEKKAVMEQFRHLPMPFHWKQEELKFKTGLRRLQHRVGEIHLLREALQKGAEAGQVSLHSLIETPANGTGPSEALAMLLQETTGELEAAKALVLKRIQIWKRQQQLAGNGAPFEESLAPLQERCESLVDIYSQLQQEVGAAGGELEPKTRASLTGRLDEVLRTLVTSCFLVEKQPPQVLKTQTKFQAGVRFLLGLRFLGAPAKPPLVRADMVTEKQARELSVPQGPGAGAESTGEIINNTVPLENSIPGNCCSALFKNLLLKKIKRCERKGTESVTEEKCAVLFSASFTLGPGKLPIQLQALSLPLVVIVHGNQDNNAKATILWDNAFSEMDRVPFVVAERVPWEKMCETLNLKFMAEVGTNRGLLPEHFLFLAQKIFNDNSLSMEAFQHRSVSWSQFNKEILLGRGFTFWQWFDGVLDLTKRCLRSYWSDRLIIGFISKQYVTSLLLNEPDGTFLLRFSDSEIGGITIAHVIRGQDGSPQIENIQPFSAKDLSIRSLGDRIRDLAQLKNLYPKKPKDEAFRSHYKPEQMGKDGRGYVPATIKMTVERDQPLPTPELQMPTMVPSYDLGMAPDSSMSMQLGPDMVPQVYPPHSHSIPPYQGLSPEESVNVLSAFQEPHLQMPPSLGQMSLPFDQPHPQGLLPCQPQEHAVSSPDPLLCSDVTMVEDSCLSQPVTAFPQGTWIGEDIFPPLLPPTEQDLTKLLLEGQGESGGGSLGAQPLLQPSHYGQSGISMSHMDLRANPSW
Briefly: MSD-pSTAT-PBMC Assay (pSTAT6, IL-4 stimulated). It is filed as cell-based. As to conditions: compound 3 hrs, then 1 ng/mL IL-4 for 10 min. The method, boiled down: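 MSD electrochemiluminescence read-out: total STAT captured, probed with anti-pY641-STAT6 or anti-pY705-STAT3. Human PBMC, 3 h compound pretreatment, 10 min stimulation (IL-4 1 ng/mL or IL-6 10 ng/mL). Unstimulated signal subtracted, DMSO-normalized, variable-slope IC50.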

Setting [1] is: PBMC, Table 1114, read-out: pSTAT6.
[2] abbreviates: PBMC, Table 115, read-out: STAT6.

Like-named read-outs stand apart in the source and are kept apart here.

T1 sequence (P40763 whole entry): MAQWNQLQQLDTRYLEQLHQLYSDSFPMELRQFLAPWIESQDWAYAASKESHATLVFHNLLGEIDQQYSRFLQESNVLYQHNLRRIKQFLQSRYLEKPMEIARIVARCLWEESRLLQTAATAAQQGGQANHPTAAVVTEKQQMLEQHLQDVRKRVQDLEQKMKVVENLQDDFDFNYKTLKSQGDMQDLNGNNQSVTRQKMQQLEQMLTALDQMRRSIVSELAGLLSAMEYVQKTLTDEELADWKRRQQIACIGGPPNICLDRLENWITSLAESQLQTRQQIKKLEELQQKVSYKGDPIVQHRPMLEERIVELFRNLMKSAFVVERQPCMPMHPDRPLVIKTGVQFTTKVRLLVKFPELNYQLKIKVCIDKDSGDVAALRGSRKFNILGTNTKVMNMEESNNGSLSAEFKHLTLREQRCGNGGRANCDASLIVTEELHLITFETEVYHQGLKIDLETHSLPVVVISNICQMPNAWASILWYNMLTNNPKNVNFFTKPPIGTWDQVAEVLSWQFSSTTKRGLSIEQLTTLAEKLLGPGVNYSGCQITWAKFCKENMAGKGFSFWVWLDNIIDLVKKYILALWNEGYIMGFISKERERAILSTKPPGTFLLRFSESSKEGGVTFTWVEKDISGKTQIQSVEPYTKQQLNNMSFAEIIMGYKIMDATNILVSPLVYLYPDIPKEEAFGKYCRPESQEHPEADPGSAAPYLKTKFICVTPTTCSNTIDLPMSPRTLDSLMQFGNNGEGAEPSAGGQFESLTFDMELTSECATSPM

For `CN(C)S(=O)(=O)N1CCN(C(=O)[C@@H]2CC[C@@H]3CCCC[C@H](NC(=O)c4cc5cc(C(F)(F)P(=O)(OCOC(=O)C(C)(C)C)OCOC(=O)C(C)(C)C)ccc5s4)C(=O)N32)CC1` [Compound 145, ((((2-(((3S,6S,10aS)-3-(4-(N,N-dimethylsulfamoyl)piperazine-1-carbonyl)-5-oxodecahydro-pyrrolo[1,2-a]azocin-6-yl)carbamoyl)benzo[b]thiophen-5-yl)difluoromethyl)phosphoryl)bis (oxy))bis (methylene) bis(2,2-dimethylpropanoate)], the IC50 is below 100 nM on pY705-STAT3 in PBMC (Table 1114, read-out: pSTAT3) and below 100 nM on pY641-STAT6 in PBMC (setting [1]).

Turning to `CC(C)CC(=O)SCCOP(=O)(OCCSC(=O)CC(C)C)C(F)(F)c1ccc2sc(C(=O)N[C@H]3CCCC(C)[C@H]4CC[C@@H](C(=O)N5C[C@H](c6cc[nH]c(=O)c6)[C@@H](C#N)C5)N4C3=O)cc2c1` (single isomer, unassigned) [Compound 162, S,S′-(((((2-(((3S,6S,10aR)-3-((3R,4S or 3S,4R)-3-cyano-4-(2-oxo-1,2-dihydropyridin-4-yl)pyrrolidine-1-carbonyl)-10-methyl-5-oxodeca-hydropyrrolo[1,2-a]azocin-6-yl)carbamoyl)benzo [b]thiophen-5-yl)difluoromethyl)phosphoryl)bis(oxy))bis(ethane-2,1-diyl)) bis(3-methylbutane thioate)], the IC50 lay within 100 to 1000 nM on pY705-STAT3 in PBMC (Table 1114, read-out: pSTAT3) and 100 to 1000 nM on pY641-STAT6 in PBMC (setting [1]).

On to `CC(C)C(=O)SCCOP(=O)(OCCSC(=O)C(C)C)C(F)(F)c1ccc2sc(C(=O)N[C@H]3CCCCC4CC[C@@H](C(=O)N5C[C@H](c6ccccc6)[C@@H](C#N)C5)N4C3=O)cc2c1` (single isomer, unassigned) [Compound 156, S,S′-(((((2-(((3S,6S,10aS)-3-((3S,4R or 3R,4S)-3-cyano-4-phenylpyrrolidine-1-carbonyl)-5-oxodecahydro-pyrrolo[1,2-a]azocin-6-yl)carbamoyl)benzo[b]thiophen-5-yl)difluoromethyl)phosphoryl)bis(oxy))bis(ethane-2,1-diyl)) bis(2-methylpropane-thioate)], for which the IC50 was 100 to 1000 nM on pY705-STAT3 in PBMC (Table 1114, read-out: pSTAT3) and below 100 nM at pY641-STAT6 in PBMC (setting [1]).

For `CC(C)(CO)C(=O)SCCOP(=O)(Oc1ccccc1)C(F)(F)c1ccc2sc(C(=O)N[C@H]3CCC[C@H]4CC[C@@H](C(=O)N5CC(c6cccnc6)C5)N4C3=O)cc2c1` (stereo partly drawn) [Compound 201, S-(2-(((difluoro(2-(((3S,6S,9aS)-5-oxo-3-(3-(pyridin-3-yl)azetidine-1-carbonyl)octahydro-1H-pyrrolo[1,2-a]azepin-6-yl)carbamoyl)benzo[b]thiophen-5-yl)methyl) (phenoxy)phosphoryl)oxy)ethyl) 3-hydroxy-2,2-dimethyl-propanethioate], the IC50 on pY705-STAT3 in PBMC (Table 1114, read-out: pSTAT3) is 100 to 1000 nM; on pY641-STAT6 in PBMC (pSTAT6, PBMC, Table 1114), above 3000 nM.

As for `CCCC(=O)SCCOP(=O)(OCCSC(=O)CCC)C(F)(F)c1ccc2sc(C(=O)NC3CCCC4CCC(C(=O)N5CC(c6cccnc6)C5)N4C3=O)cc2c1` [Compound 179, S,S′-((((difluoro(2-(((3S,6S,9aS)-5-oxo-3-(3-(pyridin-3-yl)azetidine-1-carbonyl)octahydro-1H-pyrrolo[1,2-a]azepin-6-yl)carbamoyl)benzo[b]thiophen-5-yl)methyl)phosphoryl)bis(oxy))bis(ethane-2,1-diyl)) dibutanethioate], the IC50 is below 100 nM on pY705-STAT3 in PBMC (Table 1114, read-out: pSTAT3) and 1000 to 3000 nM at pY641-STAT6 in PBMC (setting [1]).

For `CCCOC(=O)[C@H](C)NP(=O)(Cc1ccc2sc(C(=O)N[C@H]3CCCC[C@H]4CC[C@@H](C(=O)N5CCC(c6cccnc6)C5)N4C3=O)cc2c1)Oc1ccccc1` (stereo partly drawn) [Compound 253, propyl (((2-(((3S,6S,10aS)-5-oxo-3-(3-(pyridin-3-yl)pyrrolidine-1-carbonyl)decahydropyrrolo[1,2-a]azocin-6-yl)carbamoyl)benzo [b]thiophen-5-yl)methyl)(phenoxy)phosphoryl)-L-alaninate], the IC50 on pY705-STAT3 in PBMC (Table 115, read-out: STAT3) is above 3000 nM; on pY641-STAT6 in PBMC (STAT6, PBMC, Table 115), 100 to 1000 nM.

Take `CC(C)CC(=O)SCCOP(=O)(Oc1cccc(C#N)c1)C(F)(F)c1ccc2sc(C(=O)N[C@H]3CCC[C@H]4CC[C@@H](C(=O)N5CC(c6cccnc6)C5)N4C3=O)cc2c1` (stereo partly drawn) [Compound 1008, S-(2-(((3-cyanophenoxy) (difluoro(2-(((3S,6S,9aS)-5-oxo-3-(3-(pyridin-3-yl)azetidine-1-carbonyl)octahydro-1H-pyrrolo[1,2-a]azepin-6-yl)carbamoyl)benzo [b]thiophen-5-yl)methyl)phosphoryl)oxy)ethyl) 3-methylbutanethioate]: the IC50 at pY705-STAT3 in PBMC (Table 115, read-out: STAT3) was 100 to 1000 nM; on pY641-STAT6 in PBMC (STAT6, PBMC, Table 115) it was above 3000 nM.

On to `CC(C)(C)C(=O)OCOP(=O)(OCOC(=O)C(C)(C)C)C(F)(F)c1ccc2sc(C(=O)NC3CCCCC4CCCC(C(=O)N5CC(C#N)C(c6ccccc6)C5)N4C3=O)cc2c1` [Compound 169, ((((2-(((4S,7S,11aS)-4-((rel- trans)-3-cyano-4-phenylpyrrolidine-1-carbonyl)-6-oxodecahydro-2H-pyrido[1,2-a]azocin-7-yl)carbamoyl)benzo[b]thiophen-5-yl)difluoromethyl)phosphroyl)bis(oxy)) bis(methylene) bis(2,2-dimethylpropaneoate)], for which the IC50 at pY705-STAT3 in PBMC (Table 1114, read-out: pSTAT3) was 100 to 1000 nM; on pY641-STAT6 in PBMC (setting [1]), below 100 nM.

Consider `CC(C)OC(=O)OCOP(=O)(OCOC(=O)OC(C)C)[C@H](F)c1ccc2sc(C(=O)N[C@H]3CCCC[C@H]4CC[C@@H](C(=O)N5C[C@H](c6cc[nH]c(=O)c6)[C@@H](C#N)C5)N4C3=O)cc2c1` (single isomer, unassigned) [Compound 164], for which the IC50 at pY705-STAT3 in PBMC (Table 1114, read-out: pSTAT3) is 100 to 1000 nM; on pY641-STAT6 in PBMC (setting [1]) it was 100 to 1000 nM.

In the case of `COc1ccncc1C1CN(C(=O)[C@@H]2CC[C@@H]3CCC[C@H](NC(=O)c4cc5cc([C@@H](F)[P@](=O)(N[C@@H](C)C(=O)OCc6ccccc6)Oc6ccccc6)ccc5s4)C(=O)N32)C1` (single isomer, unassigned) [Compound 1055], the IC50 was below 100 nM on pY705-STAT3 in PBMC (Table 115, read-out: STAT3) and above 3000 nM on pY641-STAT6 in PBMC (STAT6, PBMC, Table 115).

In the case of `CCCC(=O)SCCOP(=O)(OCCSC(=O)CCC)C(F)(F)c1ccc2sc(C(=O)N[C@H]3CCC[C@H]4CC[C@@H](C(=O)N5CC(c6ncccn6)C5)N4C3=O)cc2c1` [Compound 940, S,S′-((((difluoro(2-(((3S,6S,9aS)-5-oxo-3-(3-(pyrimidin-2-yl)azetidine-1-carbonyl)octahydro-1H-pyrrolo[1,2-a]azepin-6-yl)carbamoyl)benzo [b]thiophen-5-yl)methyl)phosphoryl)bis(oxy))bis(ethane-2,1-diyl)) dibutanethioate], the IC50 on pY705-STAT3 in PBMC (Table 115, read-out: STAT3) was below 100 nM; on pY641-STAT6 in PBMC (setting [2]), 100 to 1000 nM.

Take `CC(C)(C)C(=O)OCOP(=O)(OCOC(=O)C(C)(C)C)C(F)(F)c1ccc2sc(C(=O)N[C@H]3CCCC[C@H]4CC[C@@H](C(=O)N5CC(C#N)C(c6cc[nH]c(=O)c6)C5)N4C3=O)cc2c1` (mixture of isomers) [Compound 147, ((((2-(((3S,6S,10aS)-3-(rel-trans)-3-cyano-4-(2-oxo-1,2-dihydro-pyridin-4-yl)pyrrolidine-1-carbonyl)-5-oxodecahydro-pyrrolo[1,2-a]azocin-6-yl)carbamoyl)benzo[b]thiophen-5-yl)difluoromethyl)phosphoryl)bis (oxy))bis (methylene) bis(2,2-dimethylpropanoate)]: the IC50 at pY705-STAT3 in PBMC (Table 1114, read-out: pSTAT3) was 100 to 1000 nM; on pY641-STAT6 in PBMC (setting [1]), below 100 nM.

Regarding `COCC(=O)SCCOP(=O)(OCCSC(=O)COC)C(F)(F)c1ccc2sc(C(=O)N[C@H]3CCCC[C@H]4CC[C@@H](C(=O)N5C[C@@H](C#N)[C@H](c6cc[nH]c(=O)c6)C5)N4C3=O)cc2c1` (single isomer, unassigned) [Compound 1010], the IC50 on pY705-STAT3 in PBMC (Table 115, read-out: STAT3) lay in the range of 1000 to 3000 nM; on pY641-STAT6 in PBMC (setting [2]), 100 to 1000 nM.
